Experimental data as given in article PMC5603227 (ChemMedChem, 2017).
Converted amounts (≈) assume the structure as drawn. “And” between values parts separate entries of the source, which are not always exact repeats. Equal values may be shown once. Read-outs that look alike come from different tables or passages of the source.

What was measured:
[1] = tested on: HepG2 cells; assay: cells; type: cell-based, human
[2] = tested on: Mycobacterium tuberculosis H37Rv; assay: Microplate alamar blue assay; type: cell-based
[3] = tested on: Mtb H37Rv in infected THP-1 cells; assay: Intracellular activity in infected THP-1 cells; type: cell-based; details: Mycobacterium tuberculosis, read-out: MIC against intracellular Mtb
[4] = tested on: Mycobacterium avium; assay: MIC against non-tuberculous mycobacteria; type: cell-based; details: read-out: MIC M. avium
[5] = tested on: THP-1 human monocytic cell line; assay: THP-1 cytotoxicity; details: macrophage cytotoxicity relative to intracellular MIC
[6] = in vitro; details: plasma
[7] = biological target: CYP2D6 (Homo sapiens, UniProt P10635); assay: biochemical
Sequence of CYP2D6 (P10635 whole entry): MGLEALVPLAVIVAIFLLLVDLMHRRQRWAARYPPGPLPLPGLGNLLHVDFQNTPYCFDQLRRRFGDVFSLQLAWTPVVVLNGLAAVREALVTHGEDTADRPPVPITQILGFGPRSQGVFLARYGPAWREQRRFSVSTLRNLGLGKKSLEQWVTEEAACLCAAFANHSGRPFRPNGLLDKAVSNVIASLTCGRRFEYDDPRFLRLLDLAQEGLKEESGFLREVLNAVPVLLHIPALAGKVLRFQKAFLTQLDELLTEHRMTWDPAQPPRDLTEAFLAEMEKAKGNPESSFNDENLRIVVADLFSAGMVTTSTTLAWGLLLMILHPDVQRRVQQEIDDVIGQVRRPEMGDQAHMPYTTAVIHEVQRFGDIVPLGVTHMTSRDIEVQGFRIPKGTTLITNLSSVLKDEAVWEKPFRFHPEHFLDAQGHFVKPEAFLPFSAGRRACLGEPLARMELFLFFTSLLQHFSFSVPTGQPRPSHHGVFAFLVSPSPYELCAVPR

[8] = in vitro; details: human; for microsomal CLint: s9; for half-life: s9, Human liver S9 Microsomes T ½
[9] = biological target: CYP2C9 (Homo sapiens, UniProt P11712); assay: biochemical
Sequence of CYP2C9 (P11712 whole entry): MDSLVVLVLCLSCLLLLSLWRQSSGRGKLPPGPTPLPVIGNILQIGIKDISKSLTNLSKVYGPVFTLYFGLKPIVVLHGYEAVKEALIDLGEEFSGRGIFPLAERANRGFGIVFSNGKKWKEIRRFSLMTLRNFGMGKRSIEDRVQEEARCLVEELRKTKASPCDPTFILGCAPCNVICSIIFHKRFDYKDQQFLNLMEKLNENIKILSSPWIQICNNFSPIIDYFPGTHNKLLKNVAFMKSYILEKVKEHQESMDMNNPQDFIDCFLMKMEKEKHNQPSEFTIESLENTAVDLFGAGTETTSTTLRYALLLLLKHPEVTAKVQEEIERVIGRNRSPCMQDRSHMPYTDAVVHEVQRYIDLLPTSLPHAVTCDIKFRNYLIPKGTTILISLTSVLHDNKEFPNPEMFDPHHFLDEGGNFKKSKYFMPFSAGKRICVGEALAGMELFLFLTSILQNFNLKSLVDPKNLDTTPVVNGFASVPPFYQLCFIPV

[10] = tested on: Caco-2 cell monolayer; details: human
[11] = biological target: CYP2C19 (Homo sapiens, UniProt P33261); assay: biochemical
Sequence of CYP2C19 (P33261 whole entry): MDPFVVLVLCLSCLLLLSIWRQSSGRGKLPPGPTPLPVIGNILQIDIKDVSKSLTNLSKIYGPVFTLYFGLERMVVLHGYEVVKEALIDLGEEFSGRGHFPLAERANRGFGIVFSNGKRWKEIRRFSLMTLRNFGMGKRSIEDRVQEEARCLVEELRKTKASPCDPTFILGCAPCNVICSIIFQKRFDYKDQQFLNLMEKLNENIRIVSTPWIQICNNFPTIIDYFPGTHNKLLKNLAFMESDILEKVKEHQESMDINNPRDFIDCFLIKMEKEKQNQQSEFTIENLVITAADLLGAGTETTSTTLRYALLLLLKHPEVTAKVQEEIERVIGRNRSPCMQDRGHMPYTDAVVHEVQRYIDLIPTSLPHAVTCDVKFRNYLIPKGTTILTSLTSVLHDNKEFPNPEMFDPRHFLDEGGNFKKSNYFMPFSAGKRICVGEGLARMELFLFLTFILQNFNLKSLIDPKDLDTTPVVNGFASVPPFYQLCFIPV

[12] = biological target: CYP3A4 (Homo sapiens, UniProt P08684); assay: biochemical; details: Cytochrome P450 Inhibition IC50 CYP3A4
Sequence of CYP3A4 (P08684 whole entry): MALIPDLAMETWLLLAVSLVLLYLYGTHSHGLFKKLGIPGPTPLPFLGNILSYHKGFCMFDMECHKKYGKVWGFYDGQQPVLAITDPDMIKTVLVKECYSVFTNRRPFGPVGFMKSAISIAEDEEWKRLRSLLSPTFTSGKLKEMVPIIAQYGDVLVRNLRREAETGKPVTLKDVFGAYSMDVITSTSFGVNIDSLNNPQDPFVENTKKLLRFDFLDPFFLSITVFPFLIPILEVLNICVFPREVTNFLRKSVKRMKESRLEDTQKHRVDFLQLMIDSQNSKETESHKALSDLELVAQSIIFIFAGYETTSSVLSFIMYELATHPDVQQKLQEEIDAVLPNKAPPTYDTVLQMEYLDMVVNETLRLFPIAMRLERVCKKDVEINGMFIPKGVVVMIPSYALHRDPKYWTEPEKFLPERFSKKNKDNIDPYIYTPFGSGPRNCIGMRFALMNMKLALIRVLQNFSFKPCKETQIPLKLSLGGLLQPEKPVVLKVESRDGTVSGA

[13] = biological target: CYP2C8 (Homo sapiens, UniProt P10632); assay: biochemical
Sequence of CYP2C8 (P10632 whole entry): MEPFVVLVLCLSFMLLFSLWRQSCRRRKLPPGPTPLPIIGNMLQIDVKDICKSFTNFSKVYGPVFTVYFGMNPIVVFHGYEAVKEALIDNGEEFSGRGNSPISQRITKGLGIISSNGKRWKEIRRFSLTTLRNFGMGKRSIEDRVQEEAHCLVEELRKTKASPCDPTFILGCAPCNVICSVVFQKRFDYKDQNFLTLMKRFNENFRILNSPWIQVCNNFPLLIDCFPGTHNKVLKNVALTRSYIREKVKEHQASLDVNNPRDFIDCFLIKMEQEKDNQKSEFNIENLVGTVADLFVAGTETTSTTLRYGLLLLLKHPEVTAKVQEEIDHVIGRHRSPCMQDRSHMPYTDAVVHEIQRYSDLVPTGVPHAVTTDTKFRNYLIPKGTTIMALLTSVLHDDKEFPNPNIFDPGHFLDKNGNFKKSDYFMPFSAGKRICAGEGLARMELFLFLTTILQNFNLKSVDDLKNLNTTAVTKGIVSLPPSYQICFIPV

[14] = in vitro; details: human; for Papp A→B at 1 h / Papp A→B at 2 h / Papp B→A at 1 h / Papp B→A at 2 h: Caco-2; for efflux ratio: Caco-2, Caco-2 Efflux Ratio (average)
[15] = biological target: CYP2B6 (Homo sapiens, UniProt P20813); assay: biochemical
Sequence of CYP2B6 (P20813 whole entry): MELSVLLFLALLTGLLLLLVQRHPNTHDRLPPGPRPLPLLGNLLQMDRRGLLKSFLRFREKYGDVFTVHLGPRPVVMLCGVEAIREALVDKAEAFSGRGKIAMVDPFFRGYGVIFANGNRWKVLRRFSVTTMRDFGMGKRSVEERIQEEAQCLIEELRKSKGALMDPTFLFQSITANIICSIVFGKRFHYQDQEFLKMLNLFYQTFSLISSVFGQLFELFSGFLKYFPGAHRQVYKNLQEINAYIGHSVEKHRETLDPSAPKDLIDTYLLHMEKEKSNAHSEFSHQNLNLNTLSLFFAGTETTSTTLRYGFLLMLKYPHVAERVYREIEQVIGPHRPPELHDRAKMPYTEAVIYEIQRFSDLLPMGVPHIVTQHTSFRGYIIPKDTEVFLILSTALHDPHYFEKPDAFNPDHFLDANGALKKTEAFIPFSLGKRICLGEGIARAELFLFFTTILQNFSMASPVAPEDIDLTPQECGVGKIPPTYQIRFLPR

[16] = Relative aqueous solubility by turbidity in 7H9/ADC/Tween medium; details: 200 μM highest concentration tested
[17] = Homo sapiens, HepG2, read-out: IC50 HepG2 Gal, galactose medium
[18] = Homo sapiens, HepG2, read-out: IC50 HepG2 Glu, glucose medium

Compound: Cc1ccn2c(C(=O)NCc3ccc(S(F)(F)(F)(F)F)cc3)c(C)nc2c1 [Compound 13, 2,7-Dimethyl-N-(4-(pentafluoro-λ^6-sulfanyl)benzyl)imidazo[1,2-a]pyridine-3-carboxamide]
- IC50 [1, 17]: > 25 µM
- IC50 [1, 18]: > 25 µM
- MIC [2]: < 0.1 µM
- MIC [3]: < 0.01 µM

Compound: Cc1ccn2c(C(=O)NCc3cccc(S(F)(F)(F)(F)F)c3)c(C)nc2c1 [Compound 14, 2,7-Dimethyl-N-(3-(pentafluoro-λ^6-sulfanyl)benzyl)imidazo[1,2-a]pyridine-3-carboxamide]
- IC50 [1, 17]: > 25 µM
- IC50 [1, 18]: > 25 µM
- MIC [4]: 200 µM (≈ 81.1 µg/mL)

Compound: Cc1ccc2nc(C)c(C(=O)NCc3ccc(S(F)(F)(F)(F)F)cc3)n2c1 [Compound 15, 2,6-Dimethyl-N-(4-(pentafluoro-λ^6-sulfanyl)benzyl)imidazo[1,2-a]pyridine-3-carboxamide]
- IC50 [1, 17]: > 25 µM
- IC50 [1, 18]: > 25 µM
- MIC [2]: < 0.1 µM
- MIC [3]: < 0.01 µM

Compound: Cc1ccc2nc(C)c(C(=O)NCc3cccc(S(F)(F)(F)(F)F)c3)n2c1 [Compound 16, 2,6-Dimethyl-N-(3-(pentafluoro-λ^6-sulfanyl)benzyl)imidazo[1,2-a]pyridine-3-carboxamide]
- IC50 [1, 17]: > 25 µM
- IC50 [1, 18]: > 25 µM
- MIC [2]: < 0.1 µM

Compound: CCc1nc2ccc(Cl)cn2c1C(=O)NCc1ccc(S(F)(F)(F)(F)F)cc1 [Compound 17, 6-Chloro-2-ethyl-N-(4-(pentafluoro-λ^6-sulfanyl)benzyl)imidazo[1,2-a]pyridine-3-carboxamide]
- IC50 [1, 17]: > 25 µM
- IC50 [1, 18]: > 25 µM
- MIC [3]: < 0.01 µM
- therapeutic window [5]: > 100

Compound: CCc1nc2ccc(Cl)cn2c1C(=O)NCc1cccc(S(F)(F)(F)(F)F)c1 [Compound 18, 6-Chloro-2-ethyl-N-(3-(pentafluoro-λ^6-sulfanyl)benzyl)imidazo[1,2-a]pyridine-3-carboxamide]
- fraction unbound [6]: 0.001
- IC50 [7]: 6.5 µM
- IC50 [1, 17]: > 25 µM
- IC50 [1, 18]: > 25 µM
- microsomal CLint [8]: 89.7 µL/min/mg
- half-life [8]: 25.8 min
- IC50 [9]: 10.4 µM
- Caco-2 Efflux Ratio (average) [10]: 3.16
- IC50 [11]: 10.6 µM
- IC50 [12]: 8.4 µM and > 20 µM
- IC50 [13]: 14.4 µM
- Papp A→B at 1 h [14]: 10.9 nm/s
- Papp A→B at 2 h [14]: 19.9 nm/s
- Papp B→A at 1 h [14]: 36.5 nm/s
- Papp B→A at 2 h [14]: 56.1 nm/s
- efflux ratio [14]: 3.2
- IC50 [15]: 8.4 µM

Compound: Cc1cn2c(C(=O)NCc3ccc(S(F)(F)(F)(F)F)cc3)c(C)nc2s1 [Compound 19, 2,6-Dimethyl-N-(4-(pentafluoro-λ^6-sulfanyl)benzyl)imidazo[2,1-b]thiazole-5-carboxamide]
- fraction unbound [6]: 0.003
- IC50 [7]: 13.4 µM
- IC50 [1, 17]: > 25 µM
- IC50 [1, 18]: > 25 µM
- MIC [2]: < 0.1 µM
- microsomal CLint [8]: 175 µL/min/mg
- half-life [8]: 13.5 min
- IC50 [9]: 14 µM
- Caco-2 Efflux Ratio (average) [10]: 0.988
- IC50 [11]: 13.5 µM
- IC50 [12]: > 20 µM
- MIC [4]: 200 µM (≈ 82.3 µg/mL)
- IC50 [13]: > 20 µM
- Human liver S9 Microsomes T ½: 13.3 min
- Papp A→B at 1 h [14]: 63.5 nm/s
- Papp A→B at 2 h [14]: 121 nm/s
- Papp B→A at 1 h [14]: 83.5 nm/s
- Papp B→A at 2 h [14]: 81 nm/s
- efflux ratio [14]: < 1
- IC50 [15]: > 20 µM

Compound: Cc1cn2c(C(=O)NCc3cccc(S(F)(F)(F)(F)F)c3)c(C)nc2s1 [Compound 20, 2,6-Dimethyl-N-(3-(pentafluoro-λ^6-sulfanyl)benzyl)imidazo[2,1-b]thiazole-5-carboxamide]
- IC50 [1, 17]: 14 µM
- IC50 [1, 18]: > 25 µM
- IC50 ([1]; read-out: IC50 HepG2 Gal, galactose medium): 14.1 µM

Compound: NNC(=O)c1ccncc1 [INH, Isoniazid, reference compound]
- MIC [3]: 0.37 µM (≈ 0.0507 µg/mL)

Compound: CC(=O)NC[C@H]1CN(c2ccc(N3CCOCC3)c(F)c2)C(=O)O1 [LIN, linezolid, reference compound]
- IC50 [1, 17]: > 25 µM
- IC50 [1, 18]: > 25 µM

Compound: CC/C(=C(/CC)c1ccc(O)cc1)c1ccc(O)cc1 [diethylstilbestrol]
- Aq. sol [16]: 125 µM
